# From ChEMBL document CHEMBL2021779, “Inhibition of hepatitis C virus NS5A by fluoro-olefin based γ-turn mimetics” (Bioorg Med Chem Lett, 2012)
# Columns and labels:
# Hepatitis C virus [1] = assay: Antiviral activity against Hepatitis C virus genotype 1B by whole cell replicon assay; assay type: functional, organism-based, Hepacivirus hominis
# Hepatitis C virus [2] = assay: Antiviral activity against Hepatitis C virus genotype 2A by whole cell replicon assay; assay type: functional, organism-based, Hepacivirus hominis
# [3] = test system: Hepatitis C virus subtype 1a; assay: Antiviral activity against Hepatitis C virus genotype 1A by whole cell replicon assay
EC50 (Hepatitis C virus [1]),EC50 (Hepatitis C virus [2]),EC50 [3],SMILES
0.079 nM,167 nM,189 nM,COC(=O)N[C@H](/C(F)=C1\CCC[C@H]1c1ncc(-c2ccc(-c3ccc(-c4cnc([C@@H]5CCC/C5=C(/F)[C@@H](NC(=O)OC)C(C)C)[nH]4)cc3)cc2)[nH]1)C(C)C
27.3 nM,397 nM,659 nM,COC(=O)N[C@H](/C(F)=C(\C)[C@@H](C)c1ncc(-c2ccc(-c3ccc(-c4cnc([C@H](C)/C(C)=C(\F)[C@@H](NC(=O)OC)C(C)C)[nH]4)cc3)cc2)[nH]1)C(C)C

SMILES,EC50 (Hepatitis C virus [1]),EC50 (Hepatitis C virus [2]),EC50 [3]
COC(=O)N[C@H](C(=O)N1CCC[C@H]1c1ncc(-c2ccc(-c3ccc(-c4cnc([C@@H]5CCCN5C(=O)[C@@H](NC(=O)OC)C(C)C)[nH]4)cc3)cc2)[nH]1)C(C)C,[…],0.063 nM,
